Test results published in ChEMBL document CHEMBL4261500, “New tricks for human farnesyltransferase inhibitor: cancer and beyond” (Medchemcomm, 2017).

Assays:
[1] = molecular target: Protein farnesyltransferase (Homo sapiens, UniProt P49354+P49356); test: Inhibition of human EC17 cell-derived FTase using recombinant GST-tagged H-Ras/(3H)-FPP as substrate incubated for 1 hr by liquid scintillation counting method; format: protein-complex assay
A-431 = test: Cytotoxicity against human A431 cells; format: cell-based
A549 = test: Cytotoxicity against human A549 cells assessed as decrease in cell viability after 48 hrs by MTT assay; format: functional, cell-based; conditions: A549, 48 h
[2] = molecular target: Protein farnesyltransferase (Rattus norvegicus, UniProt Q02293+Q04631); test: Inhibition of recombinant rat FTase alpha/beta expressed in Escherichia coli using NBD-FPP/GST-tagged H-Ras as substrate incubated for 2 hrs by SDS-PAGE method

IC50 [1] [nM] | IC50 [2] [nM] | SMILES | IC50 (A-431) [nM] | IC50 (A549) [nM]
860 |  | CC[C@@]1(O)C[C@H](O[C@H]2C[C@H]([N+](C)(C)Cc3ccccc3)[C@@H](O[C@H]3C[C@H](O)[C@H](O[C@H]4CCC(=O)[C@H](C)O4)[C@H](C)O3)[C@H](C)O2)c2c(cc3c(c2O)C(=O)c2c(O)cccc2C3=O)[C@H]1C(=O)OC | > 10000 | 
 | 2990 | COC1=C(OC)[C@H](O)[C@H](C/C=C(\C)CC/C=C(\C)CCC=C(C)C)[C@@H](C)C1=O [ANTROQUINONOL] |  | 3240
